Experimental findings from article PMC5653977 (EMBO Molecular Medicine, 2017) are described below.

Where a name gives a salt, the structure may show the parent alone. *1 amine or outer side, *2 acyl side, *3 side chain or, on linkers, in order; H or OH if unused. Where a SMILES comes first, the peptide text is derived from it. Bridges are numbered along the chain shown (N, C = ends). Roman numbers before positions name the chains, in order. [ ]: non-standard residue; d: D form. Actinocin(9to1) = Cc1c2oc3c(C)ccc(C(=O)[*:1])c3nc-2c(C(=O)[*:2])c(N)c1=O; pGlu = O=C1CC[C@@H](C(=O)O)N1; NMeV = CN[C@H](C(=O)O)C(C)C; Thz = O=C(O)[C@@H]1CSCN1; Sar = CNCC(=O)O

In this assay the test system is NRG1-ERBB4 signaling. The assay is described as follows: Nrg1-ERBB4-PIK3R1 split TEV co-culture compound screen of the NIH Clinical Collection. The assay is classed as cell-based, human.
[1] abbreviates: compounds at 10 μM, 24 h, PC12 split TEV assay cells co-cultured with Nrg1-expressing PC12 cells, analysed with cellHTS2.
[2] abbreviates: NIH Clinical Collection NCC-003 raw data, compounds ranked by Z-score, 'flagged' given instead of a Z-score.
[3] abbreviates: compound screen of the NIH Clinical Collection, sheet raw data NCC-003, compounds ranked by Z-score.

`CC1(C)S[C@@H]2[C@H](NC(=O)[C@H](N)c3ccc(O)cc3)C(=O)N2[C@H]1C(=O)O` [AMOXICILLIN CRYSTALLINE, reference compound] registered a Z-SCORE under setting [1] of -1.06.
On to `Cc1c2oc3c(C)ccc(C(=O)N[C@@H]4C(=O)N[C@H](C(C)C)C(=O)N5CCC[C@H]5C(=O)N(C)CC(=O)N(C)[C@@H](C(C)C)C(=O)O[C@@H]4C)c3nc-2c(C(=O)N[C@@H]2C(=O)N[C@H](C(C)C)C(=O)N3CCC[C@H]3C(=O)N(C)CC(=O)N(C)[C@@H](C(C)C)C(=O)O[C@@H]2C)c(N)c1=O` [DACTINOMYCIN] (I: T[dV]P[Sar][NMeV] / II: T[dV]P[Sar][NMeV]; ester I:1-I:C, II:1-II:C; linker I:N-II:N via Actinocin(9to1)), for which, under setting [2], the Z-SCORE result is given as “flagged”.
Molecule `C[C@@H]1C[C@H]2[C@@H]3C[C@H](F)C4=CC(=O)C(Cl)=C[C@]4(C)[C@@]3(F)[C@@H](O)C[C@]2(C)[C@@]1(O)C(=O)CO.O` [HALOMETASONE MONOHYDRATE] came in with a Z-SCORE under setting [3] of -0.25.
Turning to `NC[C@H]1CC[C@H](C(=O)Oc2ccc(CCC(=O)O)cc2)CC1` [CETRAXATE HCl], the Z-SCORE under setting [3] is reported as 0.04.
On to `O=C(O)c1cc2ccccc2c(Cc2c(O)c(C(=O)O)cc3ccccc23)c1O.OCCOCCN1CCN(C(c2ccccc2)c2ccc(Cl)cc2)CC1` [Vistaril Pamoate, reference compound], for which the Z-SCORE under setting [1] was -1.45.
For the molecule `CC(=O)[C@H]1CC[C@H]2[C@@H]3C[C@H](C)C4=CC(=O)CC[C@]4(C)[C@H]3[C@@H](O)C[C@]12C` [Medrysone, reference compound], the Z-SCORE under setting [1] was -1.74.
`Fc1ccc([C@@H]2CCNC[C@H]2COc2ccc3c(c2)OCO3)cc1` [Paroxetine, reference compound] registered a Z-SCORE under setting [3] of 2.09; a Z-SCORE (compound screen of the NIH Clinical Collection, sheet raw data NCC-003, compounds ranked by Z-score, listed as PAROXETINE) of 1.3; a Z-SCORE under setting [1] of -0.28.
In turn, `Cl.NCC(O)c1ccc(O)c(O)c1` (racemic) [(+/-)-NOREPINEPHRINE HYDROCHLORIDE, reference compound] displayed a Z-SCORE under setting [1] of 1.11.
As for `CCN(CC)CCNC(=O)c1ccc(N)cc1` [Pronestyl, reference compound], under setting [1], the Z-SCORE is given as 0.04.
Under setting [1], `CC(C)OC(=O)C(C)(C)Oc1ccc(C(=O)c2ccc(Cl)cc2)cc1` [FENOFIBRATE, reference compound] yielded a Z-SCORE of 0.77.
Still for that read-out and setting: the figure for `c1ccc2c(CC3=NCCN3)cccc2c1` [Albalon, reference compound] is -0.27; for `CCC[C@@H]1C[C@@H](C(=O)N[C@@H]([C@H]2O[C@H](SC)[C@H](O)[C@@H](O)[C@H]2O)[C@@H](C)O)N(C)C1` [Lincomycin hydrochloride, reference compound] it is 0.53.
Turning to `CCC(C)(C)C(=O)O[C@H]1C[C@@H](C)C=C2C=C[C@H](C)[C@H](CC[C@@H]3C[C@@H](O)CC(=O)O3)[C@H]21` [Simvastatin, reference compound], under setting [1], the Z-SCORE entry was “flagged”.
The same measure, in the same setting: the figure for `CN1CCC[C@H]1c1cccnc1` [NICOTINE, reference compound] is -0.12.
As for `Cc1ccc(O)c([C@H](CCN(C(C)C)C(C)C)c2ccccc2)c1` [TOLTERODINE TARTRATE], under setting [3], the Z-SCORE is -1.01.
Consider `CC(C)c1ccc2oc3nc(N)c(C(=O)O)cc3c(=O)c2c1` [Amlexanox, reference compound], for which the Z-SCORE is, setting by setting: under setting [3], 4.7; under setting [1], 4.7.
Turning to `O=C(O)c1cc(=O)c2c(OCC(O)COc3cccc4oc(C(=O)O)cc(=O)c34)cccc2o1` [Cromolyn Sodium, reference compound], the Z-SCORE under setting [1] was 1.88.
For `CCOC(=O)c1ccc(OC(=O)CCCCCN=C(N)N)cc1.CS(=O)(=O)O` [Gabexate mesylate], under setting [3], the Z-SCORE is -0.47.
In the case of `CC(C)NCC(O)c1ccc(O)c(O)c1` (stereo not drawn) [Isuprel, reference compound], the Z-SCORE under setting [1] is reported as -0.93.
Under setting [3], `COc1ccc(-c2cc(=O)c3c(OC)c(OC)c(OC)c(OC)c3o2)cc1OC` [Nobiletin] displayed a Z-SCORE of -0.05.
`Brc1c(NC2=NCCN2)ccc2nccnc12` [Brimonidine, reference compound]: the Z-SCORE under setting [1] was found to be 0.01.
On the same count and under the same terms, the figure for `Cc1onc(-c2ccccc2)c1C(=O)N[C@@H]1C(=O)N2[C@@H]1SC(C)(C)[C@@H]2C(=O)[O-].O.[Na+]` [Micropenin, reference compound] is 0.25; for `CC(C)C(=O)Nc1ccc([N+](=O)[O-])c(C(F)(F)F)c1` [FLUTAMIDE, reference compound] it is 0.85.
`CC(=O)CCCCn1c(=O)c2c(ncn2C)n(C)c1=O` [Pentoxifylline]: under setting [3], the Z-SCORE is -0.43.
Under setting [3], `O=C1[C@H](CC[C@H](O)c2ccc(F)cc2)[C@@H](c2ccc(O)cc2)N1c1ccc(F)cc1` [EZETIMIBE] displayed a Z-SCORE of 0.64.
Consider `COc1cc([C@@H]2c3cc4c(cc3[C@@H](O[C@@H]3O[C@@H]5CO[C@@H](C)O[C@H]5[C@H](O)[C@H]3O)[C@H]3COC(=O)[C@H]23)OCO4)cc(OC)c1O` [Etoposide], for which the Z-SCORE under setting [2] is given as -2.67.
Molecule `CN1C(=O)CC[C@H]1c1cccnc1` [(-)-Cotinine] came in with a Z-SCORE under setting [3] of -0.57.
For the molecule `CC(C)CC(N(C)C)C1(c2ccc(Cl)cc2)CCC1.Cl` (stereo not drawn) [SIBUTRAMINE HCl], under setting [2], the Z-SCORE is -1.35.
On to `CNCC(O)c1ccc(O)cc1` (stereo not drawn) [SYNEPHRINE], for which, under setting [3], the Z-SCORE is listed as -0.41.
Turning to `C[C@H](CCC(=O)O)[C@H]1CC[C@H]2[C@@H]3[C@@H](O)C[C@@H]4C[C@H](O)CC[C@]4(C)[C@H]3CC[C@]12C` [URSODEOXYCHOLIC ACID, reference compound], the Z-SCORE under setting [1] is on record as -1.5.
Turning to `C/C(=C\C(=O)OCCCCCCCCC(=O)O)C[C@@H]1OC[C@H](C[C@@H]2O[C@H]2[C@@H](C)[C@H](C)O)[C@@H](O)[C@H]1O` [Mupirocin, reference compound], the Z-SCORE under setting [1] is on record as 0.71.
The same measure, in the same setting: the figure for `CC[C@H]1OC(=O)[C@H](C)[C@@H](O[C@H]2C[C@@](C)(OC)[C@@H](O)[C@H](C)O2)[C@H](C)[C@@H](O[C@@H]2O[C@H](C)C[C@H](N(C)C)[C@H]2O)[C@](C)(O)C[C@@H](C)CN(C)[C@H](C)[C@@H](O)[C@]1(C)O` [Azithromycin, reference compound] is 0.06; for `CN(C)CCCN1c2ccccc2CCc2ccc(Cl)cc21` [Anafranil, reference compound] it is 0.12.
Still for that read-out and setting: the figure for `Cn1cc[nH]c1=S` [Methimazole, reference compound] is 3.
The molecule `CCCN1CCCC[C@H]1C(=O)Nc1c(C)cccc1C` [ROPIVACAINE HCl] displayed a Z-SCORE under setting [3] of -0.05.
On to `CN1[C@@H]2CC[C@H]1C[C@@H](OC(=O)c1c[nH]c3ccccc13)C2` [TROPISETRON HCl], for which the Z-SCORE under setting [3] amounted to 0.72.
In the case of `CC(CCCCC(=O)Nc1ccc(C(F)(F)F)cc1)NCCc1cnc[nH]1` (stereo not drawn) [HTMT], the Z-SCORE under setting [3] was -0.18.
In the case of `CCCC(C)(COC(N)=O)COC(=O)NC(C)C` (stereo not drawn) [Carisoprodol, reference compound], the Z-SCORE under setting [1] was -0.82.
As to `Cl.Cn1c(NCCN(CCO)CCCc2ccc([N+](=O)[O-])cc2)cc(=O)n(C)c1=O` [NIFEKALANT HCl], under setting [3], the Z-SCORE worked out at 1.92.
`CC[C@]1(O)CC[C@H]2[C@@H]3CCC4=CCCC[C@@H]4[C@H]3CC[C@@]21C` [Ethylestrenol] displayed a Z-SCORE under setting [3] of -0.98.
For the molecule `CC(C)N(CCC(C(N)=O)(c1ccccc1)c1ccccn1)C(C)C` (stereo not drawn) [Norpace, reference compound], the Z-SCORE under setting [1] stood at 0.73.
Same read-out and setting: to `NS(=O)(=O)c1cc2c(cc1C(F)(F)F)NCNS2(=O)=O` [HYDROFLUMETHIAZIDE, reference compound] belongs -0.47.
`O=C1CC[C@@H](C(=O)N2CSC[C@H]2C(=O)O)N1` [PIDOTIMOD] ([pGlu]-[Thz]-OH) showed a Z-SCORE under setting [2] of -1.2.
Take `O=C(O)CCCc1ccc(N(CCCl)CCCl)cc1` [CHLORAMBUCIL, reference compound]: the Z-SCORE under setting [1] was found to be 0.14.
Under setting [3], `CC(=O)SCC(Cc1ccccc1)C(=O)NCC(=O)OCc1ccccc1` (stereo not drawn) registered a Z-SCORE of 0.
As for `Cc1[nH]cnc1CN1CCc2c(c3ccccc3n2C)C1=O` [ALOSETRON HCl], the Z-SCORE under setting [3] was 0.99.
The molecule `CC(=O)Nc1ccc(CC(=O)O)cc1` [ACTARIT] had a Z-SCORE under setting [3] of -0.12.
In the case of `CN1CC[C@]2(c3cccc(O)c3)Cc3nc4ccccc4cc3C[C@H]2C1` [SB 205607], the Z-SCORE under setting [3] is on record as 0.19.
`CC(=O)OCC(=O)[C@@]12OC3(CCCC3)O[C@@H]1C[C@H]1[C@@H]3CCC4=CC(=O)C=C[C@]4(C)[C@@]3(F)[C@@H](O)C[C@@]12C` [AMCINONIDE, reference compound] came in with a Z-SCORE under setting [1] of -1.01.
As for `COc1ccc(C(=O)NCc2ccc(OCCN(C)C)cc2)cc1OC.Cl` [ITOPRIDE HCl], the Z-SCORE under setting [3] came to 1.68.
`CCCCC(=O)O[C@]1(C(=O)CO)CC[C@H]2[C@@H]3CCC4=CC(=O)CC[C@]4(C)[C@H]3[C@@H](O)C[C@@]21C` [Westcort, reference compound]: the Z-SCORE under setting [1] is recorded as -0.71.
The molecule `NC1=NC(=O)C(c2ccccc2)O1` (stereo not drawn) [Pemoline] displayed a Z-SCORE under setting [3] of -0.71.
Turning to `C[N+]1(C)CCCC(OC(=O)C(O)(c2ccccc2)c2ccccc2)C1` (stereo not drawn) [MEPENZOLATE BROMIDE, reference compound], the Z-SCORE under setting [1] is recorded as -0.58.
The same measure, in the same setting: to `CC(C)Cc1ccc(C(C)C(=O)O)cc1` (stereo not drawn) [IBUPROFEN, reference compound] belongs 0.27.
`Cc1ncc([N+](=O)[O-])n1CCO` [METRONIDAZOLE] registered a Z-SCORE under setting [3] of -0.28.
As for `O=C(O)c1cc(/N=N/c2ccc(S(=O)(=O)Nc3ccccn3)cc2)ccc1O` [SULFASALAZINE], the Z-SCORE under setting [2] is listed as -2.84.
Take `CCN(CC)CCNC(=O)c1cc(Cl)c(N)cc1OC.Cl` [Maxolon, reference compound]: under setting [1], the Z-SCORE was -1.12.
As for `CCOC(=O)C1(c2ccccc2)CCN(CCC(C#N)(c2ccccc2)c2ccccc2)CC1` [DIPHENOXYLATE], the Z-SCORE under setting [3] is -0.45.
Same read-out and setting: to `O=C1Nc2ccc(Cl)cc2C(c2ccccc2Cl)=NC1O` (stereo not drawn) [Lorazepam] belongs 0.53; to `O=C1N[C@H](C(=O)O)CS1`, 0.84.
